Experimental data: patent publication US7138527B2, “Indole derivatives useful for the treatment of diseases” (Pfizer Inc., priority 2002, dated 2006)

Target: T1, human β2 adrenergic receptor (Homo sapiens, UniProt P07550)
T1 construct: expressed in transfected cells; host or cells: CHO (Chinese Hamster Ovary) cells, CHOhβ2
Assay: Cell based cAMP assay in CHO cells recombinantly expressing the human β2 adrenergic receptor (cAMP-Flashplate)
Conditions: CHOhβ2 cells, 1 hour incubation
Procedure: According to another alternative, the agonist potency for the […] of the indole derivatives of the formula (1) may also be determined by the measure of the concentration of compound according to the present invention required to produce half maximal effect (EC50) for the β2 receptor.
10 mM/100% DMSO (dimethylsulfoxide) stock of compound is diluted to required top dose in 4% DMSO. This top dose is used to construct a 10-point semi-log dilution curve, all in 4% DMSO. […] Data was expressed as % Isoprenaline response.
Cells were seeded to give about 90% confluency for testing.
25 μl/well each dose of compound was transferred into a cAMP-Flashplate® (NEN, SMP004B), with 1% DMSO as basal controls and 100 nM Isoprenaline as max controls. This was diluted 1:2 by the addition of 25 μl/well PBS. […] Compounds were incubated with 50 μl/well cells for 1 hour. […] Dose-response data was expressed as % Isoprenaline activity and fitted using a four parameter sigmoid fit.

T1 sequence (P07550 whole entry): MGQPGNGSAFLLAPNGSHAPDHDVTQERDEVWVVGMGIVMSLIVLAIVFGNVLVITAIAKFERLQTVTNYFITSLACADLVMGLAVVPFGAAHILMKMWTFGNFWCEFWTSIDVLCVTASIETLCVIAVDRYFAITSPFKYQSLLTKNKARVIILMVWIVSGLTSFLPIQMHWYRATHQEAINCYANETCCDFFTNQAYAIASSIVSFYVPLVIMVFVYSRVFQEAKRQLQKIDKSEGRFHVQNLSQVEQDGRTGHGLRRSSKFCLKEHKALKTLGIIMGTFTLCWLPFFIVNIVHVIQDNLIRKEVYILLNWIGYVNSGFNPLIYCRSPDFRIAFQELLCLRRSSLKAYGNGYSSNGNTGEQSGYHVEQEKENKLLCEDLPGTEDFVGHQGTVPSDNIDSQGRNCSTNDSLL

| SMILES | EC50 [nM] |
| --- | --- |
| C[C@H](Cc1ccc2[nH]c(C(=O)NCc3ccc(C(F)(F)F)cc3)cc2c1)NC[C@H](O)c1ccc(O)c(CO)c1 [Example 2, 5-[(2R)-2-({(2R)-2-hydroxy-2-[4-hydroxy-3-(hydroxymethyl)phenyl]ethyl}amino)propyl]-N-[4-(trifluoromethyl)benzyl]-1H-indole-2-carboxamide] | 0.8 |
| COc1cccc(CNC(=O)c2cc3cc(C[C@@H](C)NC[C@H](O)c4ccc(O)c(CO)c4)ccc3[nH]2)c1 [Example 4, 5-[(2R)-2-({(2R)-2-hydroxy-2-[4-hydroxy-3-(hydroxymethyl)phenyl]ethyl}amino)propyl]-N-(3-methoxybenzyl)-1H-indole-2-carboxamide] | 0.12 |
| COc1cc(O)cc(OC)c1CNC(=O)c1cc2cc(C[C@@H](C)NC[C@H](O)c3ccc(O)c(CO)c3)ccc2[nH]1 [Example 9, 5-[(2R)-2-({(2R)-2-Hydroxy-2-(4-hydroxy-3-hydroxymethylphenyl)ethyl]amino)propyl]-N-(4-hydroxy-2,6-dimethoxybenzyl)-1H-indole-2-carboxamide] | 0.02 |
| COc1ccccc1CNC(=O)c1cc2cc(C[C@@H](C)NC[C@H](O)c3ccc(O)c(CO)c3)ccc2[nH]1 [Example 1, 5-[(2R)-2-({(2R)-2-hydroxy-2-[4-hydroxy-3-(hydroxymethyl)phenyl]ethyl}amino)propyl]-N-(2-methoxybenzyl)-1H-indole-2-carboxamide] | 0.02 |
| COc1cccc(OC)c1CNC(=O)c1cc2cc(C[C@@H](C)NC[C@H](O)c3ccc(O)c(CO)c3)ccc2[nH]1 [Example 3, N-(2,6-dimethoxybenzyl)-5-[(2R)-2-({(2R)-2-hydroxy-2-[4-hydroxy-3-(hydroxymethyl)phenyl]ethyl}amino)propyl]-1H-indole-2-carboxamide] | 0.05 |

Further lines, results first:

| EC50 [nM] | SMILES |
| --- | --- |
| 3.99 | CCn1c(C(=O)NCc2ccc(Cl)cc2)cc2cc(C[C@@H](C)NC[C@H](O)c3ccc(O)c(CO)c3)ccc21 [Example 29, 1-Ethyl-5-[(2R)-2-({(2R)-2-hydroxy-2-(4-hydroxy-3-hydroxymethylphenyl)ethyl}amino)propyl}-N-(4-chlorobenzyl)-1H-indole-2-carboxamide] |
| 0.38 | CC[C@H](Cc1ccc2[nH]c(C(=O)NCc3ccccc3)cc2c1)NC[C@H](O)c1ccc(O)c(CO)c1 [Example 36, 5-[(2R)-2-({(2R)-2-Hydroxy-2-(4-hydroxy-3-hydroxymethylphenyl)ethyl]amino)butyl}-N-benzyl-1H-indole-2-carboxamide] |
| 0.02 | C[C@H](Cc1ccc2[nH]c(C(=O)N(C)Cc3ccccc3)cc2c1)NC[C@H](O)c1ccc(O)c(CO)c1 [Example 22, 5-[(2R)-2-({(2R)-2-Hydroxy-2-(4-hydroxy-3-hydroxymethylphenyl)ethyl}amino)propyl}-N-benzyl-N-methyl-1H-indole-2-carboxamide] |
